Measured values taken from patent publication US9840482B2, “Sulfonamide derivatives and pharmaceutical applications thereof” (Sunshine Lake Pharma Co., Ltd., priority 2014, dated 2017).

biological target: T1, human 5-HT6 receptor (Homo sapiens, UniProt P50406); assay: Radioligand binding assay ([3H]LSD) on membranes of CHO cells expressing human 5-HT6 receptor; conditions: human 5-HT6 receptor expressed in CHO cell, 2 nM [3H]LSD, 37° C., 120 min
T1 construct: expressed in transfected cells; host or cells: CHO cells (membrane preparation)
Protocol: The binding affinities of the compounds of this invention to human 5-HT6 receptor expressed in CHO cell were evaluated by radioligand binding assay in this example. Briefly, for each compound of the present invention, the binding affinity thereof was tested through the following steps:
32 μg membrane proteins of CHO cell expressing human 5-HT6 receptor, 2 nM of radioactive marker [3H]LSD, a compound of the present invention having different test concentrations, 100 μM 5-HT (5-HT was used to eliminate nonspecific binding sites) and a buffer solution were mixed uniformly. Then the resulting mixture was incubated at 37° C. for 120 min, in which the buffer solution was comprised of 50 mM Tris-HC1 (pH 7.4), 10 mM MgCl2, 0.5 mM EDTA, 10 μM pargyline and 20 mg/L protease inhibitor.
After incubation, the resluting mixture was filtered by a fiberglass filter in vacuo (GF/B, Packard), and the filter membrane of the fiberglass filter was preimpregnated with 0.3% PEI before the filtering and washed with 50 mM of Tris-HC1 for several times after the filtering. After the filter membrane was dried, and the radioactivity of filter membrane was determined by liquid scintillation counting by using a scintillometer (Topcount, Packard). The reference standard was 5-HT, and IC50 values were calculated by competitive inhibition curves plotted based on several inhibition ratios and the corresponding compound concentrations.

T1 sequence (P50406 whole entry): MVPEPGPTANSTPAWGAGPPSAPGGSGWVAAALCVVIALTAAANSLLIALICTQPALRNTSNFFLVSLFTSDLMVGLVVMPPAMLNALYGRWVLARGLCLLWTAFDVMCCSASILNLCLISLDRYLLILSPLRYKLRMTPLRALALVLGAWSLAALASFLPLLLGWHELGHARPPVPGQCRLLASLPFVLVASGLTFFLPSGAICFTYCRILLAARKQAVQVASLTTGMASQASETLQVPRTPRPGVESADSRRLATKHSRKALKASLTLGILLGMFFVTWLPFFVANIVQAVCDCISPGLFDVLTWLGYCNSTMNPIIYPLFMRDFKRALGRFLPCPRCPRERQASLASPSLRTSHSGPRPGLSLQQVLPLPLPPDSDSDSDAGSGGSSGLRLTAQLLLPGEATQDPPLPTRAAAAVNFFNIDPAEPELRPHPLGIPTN

SMILES | IC50
COc1ccc(S(=O)(=O)NCCc2cccc3ccccc23)cc1N1CCNCC1 [Example 1] | 2.7 nM
COc1ccc(S(=O)(=O)NCCc2cccc3ccccc23)cc1N1CCN(C)CC1 [Example 2] | 0.92 nM
COc1ccc2cccc(CCNS(=O)(=O)c3ccc(OC)c(N4CCN(C)CC4)c3)c2c1 [Example 8] | 0.5 nM
COc1ccc(S(=O)(=O)NCCc2cccc3ccc(Br)cc23)cc1N1CCN(C)CC1 [Example 12, N-(2-(7-Bromonaphthalen-1-yl)ethyl)-4-methoxy-3-(4-methylpiperazin-1-yl) benzene sulfonamide] | 0.17 nM
COc1ccc2cccc(CCNS(=O)(=O)c3ccc(OC)c(N4CCNCC4)c3)c2c1 [Example 7, 4-Methoxy-N-(2-(7-methoxynaphthalen-1-yl)ethyl)-3-(piperazin-1-yl) benzenesulfonamide] | 1 nM
COc1ccc2cccc(C(C)(C)CNS(=O)(=O)c3ccc(OC)c(N4CCN(C)CC4)c3)c2c1 [Example 18, 4-Methoxy-N-(2-(7-methoxynaphthalen-1-yl)-2-methylpropyl)-3-(4-methylpiperazin-1-yl) benzenesulfonamide] | 1.4 nM
COc1ccc(S(=O)(=O)NCC(C)(C)c2cccc3cc(F)ccc23)cc1N1CCNCC1 [Example 15, N-(2-(6-fluoronaphthalen-1-yl)-2-methylpropyl)-4-methoxy-3-(piperazin-1-yl)benzene sulfonamide] | 11 nM
COc1ccc(S(=O)(=O)NCCc2cccc3ccc(Br)cc23)cc1N1CCNCC1 [Example 11, N-(2-(7-Bromonaphthalen-1-yl)ethyl)-4-methoxy-3-(piperazin-1-yl) benzenesulfonamide] | 2.1 nM
COc1ccc(S(=O)(=O)NCCc2cccc3cc(F)ccc23)cc1N1CCNCC1 [Example 5] | 4.1 nM
COc1ccc(S(=O)(=O)NCC(C)(C)c2cccc3ccccc23)cc1N1CCNCC1 [Example 13, 4-Methoxy-N-(2-methyl-2-(naphthalen-1-yl)propyl)-3-(piperazin-1-yl) benzenesulfonamide] | 1.3 nM
COc1ccc(S(=O)(=O)NCCc2cccc3c(OC)cccc23)cc1N1CCN(C)CC1 [Example 4, 4-Methoxy-N-(2-(5-methoxynaphthalen-1-yl)ethyl)-3-(4-methylpiperazin-1-yl) benzenesulfonamide] | 11 nM
COc1ccc(S(=O)(=O)NCCc2cccc3ccc(F)cc23)cc1N1CCNCC1 [Example 9] | 0.69 nM
COc1ccc(S(=O)(=O)NCCc2cccc3c(OC)cccc23)cc1N1CCNCC1 [Example 3, 4-Methoxy-N-(2-(5-methoxynaphthalen-1-yl)ethyl)-3-(piperazin-1-yl) benzenesulfonamide] | 31 nM
COc1ccc2cccc(C(C)(C)CNS(=O)(=O)c3ccc(OC)c(N4CCNCC4)c3)c2c1 [Example 17, 4-Methoxy-N-(2-(7-methoxynaphthalen-1-yl)-2-methylpropyl)-3-(piperazin-1-yl)benzene sulfonamide] | 1.1 nM
COc1ccc(S(=O)(=O)NCCc2cccc3cc(F)ccc23)cc1N1CCN(C)CC1 [Example 6] | 1.3 nM
COc1ccc(S(=O)(=O)NCCc2cccc3ccc(F)cc23)cc1N1CCN(C)CC1 [Example 10] | 0.28 nM

Continued, values first:

IC50 | SMILES
16 nM | COc1ccc(S(=O)(=O)NCC2(c3cccc4cc(F)ccc34)CC2)cc1N1CCNCC1 [Example 25, N-((1-(6-fFluoronaphthalen-1-yl)cyclopropyl)methyl)-4-methoxy-3-(piperazin-1-yl) benzenesulfonamide]
2.1 nM | COc1ccc2cccc(C3(CNS(=O)(=O)c4ccc(OC)c(N5CCN(C)CC5)c4)CC3)c2c1 [Example 28, 4-Methoxy-N-((1-(7-methoxynaphthalen-1-yl)cyclopropyl)methyl)-3-(4-methylpiperazin-1-yl) benzenesulfonamide]
0.46 nM | COc1ccc(S(=O)(=O)NCCc2ccc(F)c3ccccc23)cc1N1CCN(C)CC1 [Example 36]
1.6 nM | COc1ccc(S(=O)(=O)NCCc2ccc(F)c3ccccc23)cc1N1CCNCC1 [Example 35]
2.6 nM | COc1ccc(S(=O)(=O)NCCc2ccc(OC)c3ccccc23)cc1N1CCN(C)CC1 [Example 34]
2.3 nM | COc1ccc(S(=O)(=O)NCC2(c3cccc4ccc(F)cc34)CC2)cc1N1CCNCC1 [Example 29]
5 nM | COc1ccc2cccc(C3(CNS(=O)(=O)c4ccc(OC)c(N5CCNCC5)c4)CC3)c2c1 [Example 27, 4-Methoxy-N-((1-(7-methoxynaphthalen-1-v1)cyclopropyl)methyl)-3-(piperazin-1-yl) benzenesulfonamide]
1.7 nM | COc1ccc(S(=O)(=O)NCC(C)(C)c2cccc3ccc(Br)cc23)cc1N1CCNCC1 [Example 21, N-(2-(7-Bromonaphthalen-1-yl)-2-methylpropyl)-4-methoxy-3-(piperazin-1-yl) benzenesulfonamide]
5.5 nM | COc1ccc(S(=O)(=O)NCCc2ccc(OC)c3ccccc23)cc1N1CCNCC1 [Example 33, 4-Methoxy-N-(2-(4-methoxynaphthalen-1-yl)ethyl)-3-(piperazin-1-yl) benzenesulfonamide]
3.7 nM | COc1ccc(S(=O)(=O)NCC2(c3cccc4ccccc34)CC2)cc1N1CCNCC1 [Example 23, 4-Methoxy-N-((1-(naphthalen-1-yl)cyclopropyl)methyl)-3-(piperazin-1-yl) benzenesulfonamide]
1.2 nM | COc1ccc(S(=O)(=O)NCC2(c3cccc4ccc(Br)cc34)CC2)cc1N1CCNCC1 [Example 31]
3.2 nM | COc1ccc(S(=O)(=O)NCC2(c3cccc4cc(F)ccc34)CC2)cc1N1CCN(C)CC1 [Example 26, N-((1-(6-Fluoronaphthalen-1-yl)cyclopropyl)methyl)-4-methoxy-3-(4-methylpiperazin-1-yl) benzenesulfonamide]
0.31 nM | COc1ccc(S(=O)(=O)NCC(C)(C)c2cccc3ccc(Br)cc23)cc1N1CCN(C)CC1 [Example 22, N-(2-(7-Bromonaphthalen-1-yl)-2-methylpropyl)-4-methoxy-3-(4-methylpiperazin-1-yl) benzenesulfonamide]
2 nM | COc1ccc(S(=O)(=O)NCC2(c3cccc4ccccc34)CC2)cc1N1CCN(C)CC1 [Example 24, 4-Methoxy-3-(4-methylpiperazin-1-yl)-N-((1-(naphthalen-1-yl)cyclopropyl)methyl) benzenesulfonamide]

tested on: not listed separately; assay: Pharmacokinetic evaluation after intravenous or gavage administration to dogs; assay type: in vivo, Beagle dogs; conditions: by gavage, 5 mg/kg
Protocol: The LC/MS/MS system for the analysis comprised an Agilent 1200 Series Vacuum Degasser, binary syringe pumps, a well-plate autosampler, a column oven and an Agilent G6430A Triple Quadrupole Mass Spectrometer equiped with an electrospray ionization (ESI) source, Quantitative analysis was performed in the MRM mode and the conversion parameters of MRM were listed in Table 3:
Analysis was performed on waters)(Bridge C18 (2.1×50 mm, […] column, and 5 μL of sample was injected). Conditions of the analysis comprised: a mobile phase consisted of mobile phase A (water, 2 mM ammonium formate and 0.1% formic acid) and mobile phase B (methanol, 2 mM ammonium formate and 0.1% formic acid), the flow rate was 0.4 mL/min, and the conditions of gradient elution were listed in Table 4: […]
In vivo pharmacokinetic assays in dogs of the compounds disclosed herein were performed by the following steps.
Experiments were divided into two groups, one group was performed through intravenous drug delivery, and the other group was performed by gavage. The compounds disclosed herein were administered in form of a saline solution containing 5% DMSO, 5% Kolliphor HS 15, 2% (2% HC1) and 88% Saline, or the solution containing 10% DMSO, 10% Kolliphor HS 15 and 80% physiological saline. […]

SMILES | area under the plasma concentration vs time curve (AUClast)
COc1ccc(S(=O)(=O)NCC(C)(C)c2cccc3ccccc23)cc1N1CCNCC1 [Example 13, 4-Methoxy-N-(2-methyl-2-(naphthalen-1-yl)propyl)-3-(piperazin-1-yl) benzenesulfonamide] | more than 15000 h*ng/mL
